From patent US20250066350A1, “AROMATIC HETEROCYCLE-SUBSTITUTED COMPOUNDS, AND PREPARATION METHOD THEREFOR AND USE THEREOF” (Innovstone Therapeutics Limited, priority 2021, published 2025) come the findings set out here.

Test [1] has as its target ATR enzyme (Homo sapiens (Human), UniProt Q13535). The test is described as follows: Inhibitory effect on ATR enzyme (HTRF, phospho-P53). Conditions: 90 minutes incubation, 150 nM ATP final; read-out: IC50 for ATR enzyme inhibition. It is filed as biochemical. How it is done:
Test Example 1. Inhibitory Effect of Compounds of the Present Invention on ATR Enzyme
The following method is used to determine the inhibitory effect of the compounds of the present invention on the ATR enzyme. The experimental method is briefly described as follows:
1. ATR enzyme (Eurofins Pharma Discovery Services, 14-953M)
2. GST-tagged P53 protein (Eurofins Pharma Discovery Services, 14-952M)
15 nM ATR enzyme, 80 nM P53 protein, 300 nM ATP (the final concentrations were 40 nM and 150 nM, respectively), and small molecule compounds of various concentrations (the final concentrations (nM) of the ten points were 2985.0, 895.5, 298.5, 110.56, 33.17, 11.06, 4.09, 1.23, 0.41 and 0.15, respectively, and the final dimethyl sulfoxide concentration was 0.498%) were mixed and incubated at room temperature for 90 minutes. 10 μL of 2× cocktail buffer was added to the mixture of ATR, compound and substrate in the assay plate (anti-phospho-p53-Eu and anti-GST-d2 were diluted in the assay buffer). The resulting mixture was centrifuged at 1000 rpm for 30 seconds, and incubated overnight at 4° C. in the dark (a total of 20 μl in each well). The FRET signal (endpoint) was measured in the Envision instrument (HTRF 665/612 ratio was calculated at 665 nm emission and 612 nm emission). Data were processed using GraphPad software.
The inhibitory activity of the compounds of the present invention on the ATR enzyme can be determined by the test described above, and the measured IC50 values are shown in Table 1.

Test [2] has as its system SNU-601 cells. Kind of test: SNU-601 cell proliferation experiment (CellTiter-Glo, intracellular ATP). The format is cell-based. Conditions: 120 h; SNU-601 human gastric cancer cells, 5 days; read-out: IC50 for inhibition of SNU-601 cell proliferation. As to the method:
The following method is used to evaluate the inhibitory effect of the compounds of the present disclosure on SNU-601 cell proliferation according to the IC50 values by means of detecting the intracellular ATP content. The experimental method is briefly described as follows:
1. SNU-601, human gastric cancer tumor cells (Co-bioer, CBP60507)
SNU-601 cells were cultured in RPMI 1640 medium containing 10% FBS and passaged 2 to 3 times a week at a split ratio of 1:5 or 1:10. During passage, the cells were trypsinized and transferred to a centrifuge tube. The tube was centrifuged at 1000 rpm for 5 minutes, the supernatant medium was discarded, and fresh medium was added to resuspend the cells. 195 μL of cell suspension at a density of 5.128×10^3 cells/mL was added to a 96-well cell culture plate, and 200 μL of complete medium only was added to the periphery wells of the 96-well plate. The culture plate was incubated in an incubator for 24 hours (37° C., 5% CO2).
The sample to be tested was diluted to 2 mM with DMSO, diluted 3-fold serially to 10 concentrations. Blank and control wells were set. 10 μL of the solution containing the compound to be tested prepared in gradient concentrations was added to 50 μL of fresh medium. 5 μL of the above culture medium solution containing the compound was added to the culture plate. The culture plate was incubated in an incubator for 5 days (37° C., 5% CO2). 50 μL of CellTiter-Glo reagent was added to each well of the 96-well cell culture plate after discarding 100 μL/well, and the plate was shaken at room temperature in the dark for 10 min. The chemiluminescent signal values were read in PHERAstar, and data were processed using GraphPad software.
The inhibitory effect of the compounds of the present invention on SNU-601 cell proliferation can be determined by the test described above, and the measured IC50 values are shown in Table 3.
(In general: ATP-based viability assays read luminescence as a measure of living cells.)

Sequence of ATR enzyme (Q13535 whole entry): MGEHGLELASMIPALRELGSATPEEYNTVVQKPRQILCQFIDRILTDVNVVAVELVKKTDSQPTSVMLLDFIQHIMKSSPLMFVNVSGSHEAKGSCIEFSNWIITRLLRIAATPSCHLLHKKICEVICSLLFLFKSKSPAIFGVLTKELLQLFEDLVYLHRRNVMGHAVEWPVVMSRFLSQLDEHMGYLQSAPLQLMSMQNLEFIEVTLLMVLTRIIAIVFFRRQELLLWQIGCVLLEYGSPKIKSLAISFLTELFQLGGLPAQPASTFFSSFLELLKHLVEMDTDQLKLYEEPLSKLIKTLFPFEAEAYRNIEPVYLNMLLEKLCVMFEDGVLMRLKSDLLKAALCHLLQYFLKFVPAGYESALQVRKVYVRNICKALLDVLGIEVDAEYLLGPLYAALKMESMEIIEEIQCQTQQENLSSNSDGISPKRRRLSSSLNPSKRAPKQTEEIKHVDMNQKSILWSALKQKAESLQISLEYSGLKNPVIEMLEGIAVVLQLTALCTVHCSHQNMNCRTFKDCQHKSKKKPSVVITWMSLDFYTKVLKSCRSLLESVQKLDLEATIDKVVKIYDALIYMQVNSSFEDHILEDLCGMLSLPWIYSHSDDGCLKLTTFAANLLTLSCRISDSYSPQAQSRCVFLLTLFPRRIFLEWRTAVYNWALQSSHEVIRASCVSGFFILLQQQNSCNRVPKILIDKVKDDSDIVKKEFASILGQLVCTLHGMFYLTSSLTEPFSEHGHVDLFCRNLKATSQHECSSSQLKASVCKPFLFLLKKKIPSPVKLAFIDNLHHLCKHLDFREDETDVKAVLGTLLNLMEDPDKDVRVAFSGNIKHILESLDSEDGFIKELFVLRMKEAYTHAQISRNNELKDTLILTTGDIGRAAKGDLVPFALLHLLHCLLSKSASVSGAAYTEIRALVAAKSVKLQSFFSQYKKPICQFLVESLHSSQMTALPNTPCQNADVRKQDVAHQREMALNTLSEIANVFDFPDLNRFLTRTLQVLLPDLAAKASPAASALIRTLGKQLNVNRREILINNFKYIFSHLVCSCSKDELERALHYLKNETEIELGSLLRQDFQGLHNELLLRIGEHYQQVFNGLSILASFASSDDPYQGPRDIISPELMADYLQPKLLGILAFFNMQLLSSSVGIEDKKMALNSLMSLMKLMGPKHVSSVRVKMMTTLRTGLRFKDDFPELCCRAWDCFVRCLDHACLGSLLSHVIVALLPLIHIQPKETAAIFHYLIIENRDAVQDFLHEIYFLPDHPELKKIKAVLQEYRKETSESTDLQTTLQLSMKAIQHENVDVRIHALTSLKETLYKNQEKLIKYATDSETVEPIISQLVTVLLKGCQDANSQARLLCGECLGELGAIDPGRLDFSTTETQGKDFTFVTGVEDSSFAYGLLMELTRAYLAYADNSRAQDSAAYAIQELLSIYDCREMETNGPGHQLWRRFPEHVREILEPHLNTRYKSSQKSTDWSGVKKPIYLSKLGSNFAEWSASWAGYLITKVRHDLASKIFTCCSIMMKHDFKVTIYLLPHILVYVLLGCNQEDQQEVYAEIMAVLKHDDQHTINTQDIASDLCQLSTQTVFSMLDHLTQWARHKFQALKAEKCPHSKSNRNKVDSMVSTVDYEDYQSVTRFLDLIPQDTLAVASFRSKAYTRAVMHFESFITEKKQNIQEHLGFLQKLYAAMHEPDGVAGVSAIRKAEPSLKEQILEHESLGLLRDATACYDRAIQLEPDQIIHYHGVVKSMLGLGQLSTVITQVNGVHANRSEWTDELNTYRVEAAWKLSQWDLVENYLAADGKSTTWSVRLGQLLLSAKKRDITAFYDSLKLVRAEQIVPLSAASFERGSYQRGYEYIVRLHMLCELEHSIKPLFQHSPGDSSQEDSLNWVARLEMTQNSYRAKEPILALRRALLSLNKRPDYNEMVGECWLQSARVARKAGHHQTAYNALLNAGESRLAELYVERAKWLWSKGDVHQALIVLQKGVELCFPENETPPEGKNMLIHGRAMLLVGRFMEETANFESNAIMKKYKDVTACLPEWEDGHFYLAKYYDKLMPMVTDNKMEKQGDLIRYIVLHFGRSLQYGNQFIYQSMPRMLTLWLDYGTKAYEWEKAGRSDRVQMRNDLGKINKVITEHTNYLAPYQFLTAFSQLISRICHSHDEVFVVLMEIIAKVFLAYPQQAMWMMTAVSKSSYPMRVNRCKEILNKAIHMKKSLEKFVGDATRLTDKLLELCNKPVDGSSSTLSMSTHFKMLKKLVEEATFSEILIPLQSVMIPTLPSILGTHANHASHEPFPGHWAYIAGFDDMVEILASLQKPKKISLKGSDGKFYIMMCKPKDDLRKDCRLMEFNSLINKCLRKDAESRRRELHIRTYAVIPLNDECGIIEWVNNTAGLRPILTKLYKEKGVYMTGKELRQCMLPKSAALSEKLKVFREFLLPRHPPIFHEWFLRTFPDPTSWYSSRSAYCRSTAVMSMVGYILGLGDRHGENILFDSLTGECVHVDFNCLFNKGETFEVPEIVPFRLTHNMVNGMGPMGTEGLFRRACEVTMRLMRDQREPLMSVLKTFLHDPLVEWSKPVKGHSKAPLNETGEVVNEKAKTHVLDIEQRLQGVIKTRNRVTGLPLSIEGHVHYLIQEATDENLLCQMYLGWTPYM
Sequence of ATR enzyme (Q8WXE1 whole entry partner): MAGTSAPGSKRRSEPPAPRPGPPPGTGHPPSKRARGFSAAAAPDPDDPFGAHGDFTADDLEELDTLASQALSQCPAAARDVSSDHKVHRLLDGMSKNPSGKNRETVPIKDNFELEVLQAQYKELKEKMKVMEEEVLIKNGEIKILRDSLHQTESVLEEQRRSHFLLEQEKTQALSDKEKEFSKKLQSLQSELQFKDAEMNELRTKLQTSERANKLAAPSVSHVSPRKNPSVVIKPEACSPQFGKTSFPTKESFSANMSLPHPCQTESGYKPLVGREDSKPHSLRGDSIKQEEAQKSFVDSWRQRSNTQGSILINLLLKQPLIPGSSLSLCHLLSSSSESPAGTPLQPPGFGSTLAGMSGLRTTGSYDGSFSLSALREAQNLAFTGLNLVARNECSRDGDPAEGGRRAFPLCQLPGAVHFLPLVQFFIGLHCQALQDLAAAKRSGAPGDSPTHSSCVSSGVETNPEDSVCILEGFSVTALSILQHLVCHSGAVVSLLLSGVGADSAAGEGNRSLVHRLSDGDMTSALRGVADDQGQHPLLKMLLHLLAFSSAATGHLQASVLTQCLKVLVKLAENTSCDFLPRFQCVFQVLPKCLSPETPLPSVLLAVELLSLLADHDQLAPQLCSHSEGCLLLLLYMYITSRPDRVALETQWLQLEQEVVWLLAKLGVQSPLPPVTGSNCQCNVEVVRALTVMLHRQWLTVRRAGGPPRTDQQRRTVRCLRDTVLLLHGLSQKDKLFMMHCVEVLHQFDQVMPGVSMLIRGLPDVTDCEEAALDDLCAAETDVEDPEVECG

Consider `C[C@@H]1COCCN1c1cc(-c2ccc(N3CCCCC3=O)cc2C#N)c2cnn(-c3cc[nH]n3)c2n1` [Example 224], for which the results for the IC50 in test [1] and in test [2] were at most 10 nM and 10 to 100 nM, respectively.
As for `Cc1cc(-c2cc(N3CCOC[C@H]3C)nc3c2cnn3-c2cc[nH]n2)ccc1NC(=O)N1CCCC1` [Example 226], the IC50 was at most 10 nM in test [1] and 10 to 100 nM in test [2].
Turning to `CCC(=O)Nc1ccc(-c2cc(N3CCOC[C@H]3C)nc3c2cnn3-c2cc[nH]n2)c(F)c1` [Example 233], the IC50 is at most 10 nM in test [1] and 10 to 100 nM in test [2].
On to `C[C@@H]1COCCN1c1cc(-c2ccc(NC(=O)C3CC3)cc2F)c2cnn(-c3cc[nH]n3)c2n1` [Example 234], for which the figures for the IC50 in test [1] and in test [2] were at most 10 nM and 10 to 100 nM, respectively.
Regarding `C[C@@H]1COCCN1c1cc(-c2ccc(NC(=O)C(F)F)cc2F)c2cnn(-c3cc[nH]n3)c2n1` [Example 236], the IC50 in test [1] is at most 10 nM; in test [2], 10 to 100 nM.
For `C[C@@H]1COCCN1c1cc(-c2ccc(N3CC4CCC(O4)C3=O)cn2)c2cnn(-c3cc[nH]n3)c2n1` (stereo partly shown) [Example 237], the values for the IC50 in test [1] and in test [2] were at most 10 nM and 10 to 100 nM, respectively.
As for `C[C@@H]1COCCN1c1cc(-c2ccc(N3CCCCC3=O)cc2F)c2cnn(-c3cc[nH]n3)c2n1` [Example 238], the IC50 in test [1] was at most 10 nM; in test [2] it was 10 to 100 nM.
Take `C[C@@H]1COCCN1c1cc(-c2c(F)cc(N3CCCCC3=O)cc2F)c2cnn(-c3cc[nH]n3)c2n1` [Example 240]: the IC50 is at most 10 nM in test [1] and 10 to 100 nM in test [2].
Regarding `CC1CCCN(c2cc(F)c(-c3cc(N4CCOC[C@H]4C)nc4c3cnn4-c3cc[nH]n3)c(F)c2)C1=O` (stereo partly shown) [Example 241], the IC50 is at most 10 nM in test [1] and 10 to 100 nM in test [2].
The corresponding values for `C[C@@H]1COCCN1c1cc(-c2ccc(N3CC=CCC3=O)cc2F)c2cnn(-c3cc[nH]n3)c2n1` [Example 243] are at most 10 nM and 10 to 100 nM.
As to `C[C@@H]1COCCN1c1cc(-c2ccc(NC(=O)N3CCCCC3)c(F)c2)c2cnn(-c3cc[nH]n3)c2n1` [Example 244], the IC50 in test [1] was at most 10 nM; in test [2], 10 to 100 nM.
`C[C@@H]1COCCN1c1cc(-c2ccc(NC(=O)N3CCCC3)cc2F)c2cnn(-c3cc[nH]n3)c2n1` [Example 245]: the figures for the IC50 in test [1] and in test [2] were at most 10 nM and 10 to 100 nM, respectively.
Take `CC1CCCN1C(=O)Nc1ccc(-c2cc(N3CCOC[C@H]3C)nc3c2cnn3-c2cc[nH]n2)cc1` (stereo partly shown) [Example 246]: the IC50 in test [1] is at most 10 nM; in test [2], 10 to 100 nM.
Take `C[C@@H]1COCCN1c1cc(-c2ccc(NC(=O)N3CCCC3)nc2)c2cnn(-c3cc[nH]n3)c2n1` [Example 250]: the IC50 in test [1] was at most 10 nM; in test [2], 10 to 100 nM.
The like results for `Cc1cc(NC(=O)N2CCCC2)cc(C)c1-c1cc(N2CCOC[C@H]2C)nc2c1cnn2-c1cc[nH]n1` [Example 251] were, in that order, at most 10 nM and 10 to 100 nM.
As for `Cc1cc(N2CC3CCC(O3)C2=O)ccc1-c1cc(N2CCOC[C@H]2C)nc2c1cnn2-c1cc[nH]n1` (stereo partly shown) [Example 254], the IC50 in test [1] is at most 10 nM; in test [2], 10 to 100 nM.
`C[C@@H]1COCCN1c1cc(-c2ccc(N3CC4CCC(O4)C3=O)nc2)c2cnn(-c3cc[nH]n3)c2n1` (stereo partly shown) [Example 255]: the IC50 in test [1] was at most 10 nM; in test [2], 10 to 100 nM.
In the case of `Cc1cc(-c2cc(N3CCOC[C@H]3C)nc3c2cnn3-c2cc[nH]n2)ccc1N1CC2CCC(O2)C1=O` (stereo partly shown) [Example 256], the IC50 in test [1] is at most 10 nM; in test [2] it was 10 to 100 nM.
In the case of `C[C@@H]1COCCN1c1cc(-c2cnc(N3CC4CCC(O4)C3=O)cc2F)c2cnn(-c3cc[nH]n3)c2n1` (stereo partly shown) [Example 257], the IC50 in test [1] is at most 10 nM; in test [2], 10 to 100 nM.
`C[C@@H]1COCCN1c1cc(-c2cc(NC(=O)C3CC3)on2)c2cnn(-c3cc[nH]n3)c2n1` [Example 260]: the IC50 in test [1] was at most 10 nM; in test [2], 10 to 100 nM.
